Non-standard residues stand in square brackets, D forms with d. Residues, ends and D or L forms follow the SMILES beside them.
How the values were obtained:
pituitaries = assay: In vitro growth hormone release study (incubated rat pituitaries, GH by RIA); assay type: cell-based
Procedure: Female rats at the CD-1 strain were housed in a constant temperature room at 24° C. with 14 hours light and 10 hours darkness. The rats were fed Purina brand rat chow ab libitum. All studies were started between 0800 and 1000 hours.
Pituitaries were removed from 20 day old female rats. In each polytetrafluoroethylene beaker (10 ml) was incubated two pituitaries at 36° C. in 1 ml of lactated Ringer's solution in a Dubnoff Shaker (90 cycles/min.). All medium in each beaker was removed each hour (e.g., P1, P2, I3, I4, I5) and then fresh medium was added back to each beaker. Each medium removed was assayed for GH, in duplicate, by a standard radioimmunoassay (RIA).
The growth hormone agonist of Example 1 was not added to the incubation mediums employed during the first hour of the incubation period (P1) or to the incubation mediums employed during the second hour of the incubation period (P2). The growth hormone agonist of Example 1 was dissolved in dimethylsulfoxide (DMSO; 10:1, agonist:DMSO), added to each incubation medium employed during the third hour of the incubation period (I3), to each medium employed during the fourth hour of the incubation period (I4) and to each medium employed during the fifth hour of the incubation period (I5). The release of growth hormone was recorded as ΔGH and calculated by subtracting the amount of GH released at P2 from that released at I3, I4, and I5. The agonist activity was determined from the release at I3, I4, and I5.
The procedure set forth in Example 11 with one modification was employed in an in vitro growth hormone release study of the peptide of Example 6 and the results therefrom are set forth in Table XI. The sole modification was the deletion of I5 from the procedure of Example 11.
The procedure set forth in Example 11 with one modification was employed in an in vitro growth hormone release study of the peptide of Example 7 and the results therefrom are set forth in Table XII. The sole modification was the deletion of I5 from the procedure of Example 11.

growth hormone release = assay: In vivo growth hormone release study (serum GH by RIA about 15 minutes after intraperitoneal injection); parameters: species or system rat; conditions: 21 day old female rats, serum about 15 minutes after injection, mean of 8 ± SEM, control 4 ± 1
Procedure: Female rats of the CD-1 strain were housed in a constant temperature room at 24° C. with 14 hours light and 10 hours darkness. The rats were fed Purina brand rat chow ab libitum. All studies were started between 0800 and 1000 hours.
Each female rat (21 days old; eight rats per dosage level shown in Table XVI) was intraperitoneally injected with a desired dosage of the peptide of Example 1. Approximately 15 minutes after injection, the rat was guillotined. A blood sample was collected from the guillotined rat. The blood sample was centrifuged and a serum sample was collected therefrom. Each serum sample was assayed for GH, in duplicate, by a standard radioimmunoassay (RIA).

[1] = dosage 1 ng/ml incubation medium, mean of 9 assays (I3, I4, I5 minus P2) ± SEM
[2] = dosage 3 ng/ml incubation medium, mean of 9 assays (I3, I4, I5 minus P2) ± SEM
[3] = dosage 10 ng/ml incubation medium, mean of 9 assays (I3, I4, I5 minus P2) ± SEM
[4] = dosage 30 ng/ml incubation medium, mean of 9 assays (I3, I4, I5 minus P2) ± SEM
[5] = dosage 100 ng/ml incubation medium, mean of 9 assays (I3, I4, I5 minus P2) ± SEM
[6] = dosage 1,000 ng/ml incubation medium, mean of 9 assays (I3, I4, I5 minus P2) ± SEM

Row | SMILES | ΔGH (pituitaries; [1]) [ng/mL] | ΔGH (pituitaries; [2]) [ng/mL] | ΔGH (pituitaries; [3]) | ΔGH (pituitaries; [4]) | ΔGH (pituitaries; [5]) [ng/mL] | ΔGH (pituitaries; [6]) [ng/mL] | further results
1 | C[C@H](NC(=O)[C@@H](Cc1c[nH]c2ccccc12)NC(=O)[C@@H](N)Cc1c[nH]cn1)C(=O)N[C@@H](Cc1c[nH]c2ccccc12)C(=O)N[C@H](Cc1ccccc1)C(N)=O [Example 1, H2 -His-D-Trp-Ala-Trp-D-Phe-NH2] (H-H[dW]AW[dF]-NH2) | 206 | 288 | 2,005 ng/ml | 3,046 ng/ml | – | – | ΔGH (growth hormone release; dosage 0.1 (μg/ml serum)): 1 ± 1 ng/mL; ΔGH (growth hormone release; dosage 1.0 (μg/ml serum)): 2 ± 2 ng/mL; ΔGH (growth hormone release; dosage 10.0 (μg/ml serum)): 2 ± 1 ng/mL; ΔGH (growth hormone release; dosage 100.0 (μg/ml serum)): 82 ± 18 ng/mL
2 | C[C@H](NC(=O)[C@@H](Cc1c[nH]c2ccccc12)NC(=O)[C@@H](N)Cc1ccc(O)cc1)C(=O)N[C@@H](Cc1c[nH]c2ccccc12)C(=O)N[C@H](Cc1c[nH]cn1)C(N)=O [Example 2, H2 -Tyr-D-Trp-Ala-Trp-D-His-NH2] (H-Y[dW]AW[dH]-NH2) | -179 | -192 | -802 ng/mL | 611 ng/mL | – | – | –
3 | C[C@H](NC(=O)[C@@H](Cc1c[nH]c2ccccc12)NC(=O)[C@@H](N)Cc1c[nH]cn1)C(=O)N[C@@H](Cc1c[nH]c2ccccc12)C(=O)N[C@H](Cc1ccc(O)cc1)C(N)=O [Example 3, H2 -His-D-Trp-Ala-Trp-D-Tyr-NH2] (H-H[dW]AW[dY]-NH2) | -126 | – | -99 ng/mL | – | -238 | 2598 | –
4 | C[C@H](NC(=O)[C@@H](Cc1c[nH]c2ccccc12)NC(=O)[C@@H](N)Cc1c[nH]cn1)C(=O)N[C@@H](Cc1c[nH]c2ccccc12)C(=O)N[C@H](Cc1c[nH]cn1)C(N)=O [Example 4, H2 -His-D-Trp-Ala-Trp-D-His-NH2] (H-H[dW]AW[dH]-NH2) | -166 | – | -369 ng/mL | – | 43 | 1501 | –
5 | C[C@@H](NC(=O)[C@@H](Cc1c[nH]c2ccccc12)NC(=O)[C@@H](N)Cc1ccc(O)cc1)C(=O)N[C@@H](Cc1c[nH]c2ccccc12)C(=O)N[C@H](Cc1ccccc1)C(N)=O [Example 6, H2 -Tyr-D-Trp-D-Ala-Trp-D-Phe-NH2] (H-Y[dW][dA]W[dF]-NH2) | – | – | – | – | – | – | ΔGH (pituitaries; dosage 300 ng/ml incubation medium, I5 deleted, mean of 6 assays (I3, I4 minus P2) ± SEM): 648 ± 210 ng/mL; ΔGH (pituitaries; dosage 3,000 ng/ml incubation medium, I5 deleted, mean of 6 assays (I3, I4 minus P2) ± SEM): 435 ± 143 ng/mL; ΔGH (pituitaries; dosage 30,000 ng/ml incubation medium, I5 deleted, mean of 6 assays (I3, I4 minus P2) ± SEM): 1136 ± 190 ng/mL
6 | CC(=O)N[C@@H](Cc1ccc(O)cc1)C(=O)N[C@H](Cc1c[nH]c2ccccc12)C(=O)N[C@@H](C)C(=O)N[C@@H](Cc1c[nH]c2ccccc12)C(=O)N[C@H](Cc1ccccc1)C(N)=O [Example 9, CH3 CO-Tyr-D-Trp-Ala-Trp-D-Phe-NH2] (Ac-Y[dW]AW[dF]-NH2) | – | – | -297 ± 79 ng/mL | -118 ± 97 ng/mL | – | – | ΔGH (pituitaries; dosage 300 ng/ml incubation medium, mean of 9 assays (I3, I4, I5 minus P2) ± SEM): 5 ± 29 ng/mL; ΔGH (pituitaries; dosage 3,000 ng/ml incubation medium, mean of 9 assays (I3, I4, I5 minus P2) ± SEM): 1594 ± 385 ng/mL; ΔGH (pituitaries; dosage 30,000 ng/ml incubation medium, mean of 9 assays (I3, I4, I5 minus P2) ± SEM): 1607 ± 250 ng/mL
